Earlier results as cited in patent US7989007B2, “Weight loss composition” (Vincent James Enterprises, LLC, priority 2007, dated 2011).

Details: subjects treated for hypertension; similar degree of hypertension control

SMILES: CC(C)NCC(O)COc1ccc(CC(N)=O)cc1 (stereo not shown) [atenolol]
- weight gain compared to patients treated with captopril: twice the weight gain
